Reference: EP4653008A1, “TRADITIONAL CHINESE MEDICINE COMPOSITION HAVING EFFICACY IN TREATING COLDS AND USE THEREOF” (Shijiazhuang Yiling Pharmaceutical Co., Ltd., priority 2023, dated 2024)

Columns and labels:
SD rats = assay: fever in rats induced by intraperitoneal injection of LPS; assay type: in vivo; settings: 3h after LPS, 26.64 mg/kg
ICR mice = assay: ear-swelling in mice caused by xylene; assay type: in vivo; settings: 0.50g/kg
Experimental: Referring to the specification and literature documents, the dose of aspirin drug administered to mice was set at 0.50 g/kg, as shown in Table 25.
A disposable syringe was used to administer the drug at a dosing volume of 10 ml/kg. Animals in the model group were administered with a corresponding volume of the solvent. The administration was carried out for 5 days.
After receiving new experimental animals, they were numbered and subjected to an adaptive feeding for at least 5 days. The grouping was carried out as described previously. 0.5 h after the last administration, the animal was fixed, and the right ear was exposed. The xylene was applied to the middle area of the right ear of the mice by dropwise addition using a pipette, with each 15 µL of xylene applied to dorsal and ventral sides and spread evenly. The left ear was left untreated. After 40 min, the animal was sacrificed by cervical dislocation. Both ears were then cut along the base of the auricle. A punch (7 mm diameter) was used to obtain symmetrical ear tissues from both ears, which were weighed on a precision analytical balance. The weights were recorded, and the degree of swelling and the swelling inhibition rate were calculated. Swelling degree = weight of the right ear tissue - weight of the left ear tissue [formula] [formula]

IL-10 = IL-10 in tissues (ELISA), coxsackievirus infection model of young rats
IFN-γ = IFN-γ in tissues (ELISA), coxsackievirus infection model of young rats
IL-1β = IL-1β in tissues (ELISA), coxsackievirus infection model of young rats
[1] = system: lymphocyte (CD4^+ and CD8^+); assay: lymphocytes in blood (flow cytometry), coxsackievirus infection model of young rats; settings: 120.7mg/kg; for CD4^+/CD8^+: ratio
Coxsackievirus B3 (CVB3) [2] = assay: pathological changes of gastrointestinal tract, coxsackievirus infection model of young rats; settings: animals with this lesion grade (n=10), 120.7 mg/kg
Coxsackievirus B3 (CVB3) [3] = assay: viral load in gastrointestinal tissues, coxsackievirus infection model of young rats; assay type: in vivo, young SD rats
Experimental: Each group consisted of 50 animals.
Homogenization was carried out using a high-speed homogenizer to prepare a tissue suspension. The suspension was centrifuged at 14000 rpm for 10 min at 4°C and the resulting supernatant was collected. RNA was extracted using the RNA extraction solution, and the extracted RNA was reverse transcribed into c-DNA. The fluorescence intensity of c-DNA obtained by reverse transcription was measured by using absolute quantitative PCR, and the fluorescence intensity of c-DNA was used to reflect the load of coxsackievirus B3 in the tissues of the stomach, small intestine, and large intestine.

TNF-α = TNF-α in tissues (ELISA), coxsackievirus infection model of young rats
[4] = next day after the last administration
[5] = next day after last administration
[6] = 3 days after administration, 120.7 mg/kg
[7] = next day after last administration, 120.7mg/kg

CC(C)Cc1ccc(C(C)C(=O)O)cc1 (stereo not shown) [Ibuprofen]
ΔT (ΔT =Tx-T0) °C (SD rats): 0.28 ± 0.48 °C

CC(=O)Oc1ccccc1C(=O)O [Aspirin, aspirin]
Swelling degree (ICR mice): 5.53 ± 2.81 mg | Swelling inhibition rate (%) (ICR mice): 50.34%

NC(=O)c1ncn([C@@H]2O[C@H](CO)[C@@H](O)[C@H]2O)n1 [Ribavirin granule, Ribavirin]
IL-10 Large intestine (IL-10; D4, 120.7mg/kg): 497 ± 28 pg/mg | IL-10 Small intestine (IL-10; D4, 120.7mg/kg): 473 ± 23 pg/mg | IL-10 Stomach (IL-10; D4, 120.7mg/kg): 509 ± 37 pg/mg | IL-10 Large intestine (IL-10; D8, 120.7 mg/kg): 496 ± 50 pg/mg | IFN-γ Large intestine (IFN-γ; D4, 120.7mg/kg): 18364 ± 1203 pg/mg | IFN-γ Small intestine (IFN-γ; D4, 120.7mg/kg): 16295 ± 865 pg/mg | IFN-γ Stomach (IFN-γ; D4, 120.7mg/kg): 18235 ± 816 pg/mg | IFN-γ Large intestine (IFN-γ; D8, 120.7 mg/kg): 19728 ± 926 pg/mg | IFN-γ Small intestine (IFN-γ; D8, 120.7 mg/kg): 17443 ± 1296 pg/mg | IFN-γ Stomach (IFN-γ; D8, 120.7 mg/kg): 16481 ± 1093 pg/mg | IL-1β Large intestine (IL-1β; D4, 120.7mg/kg): 317 ± 18 pg/mg | IL-1β Small intestine (IL-1β; D4, 120.7mg/kg): 318 ± 23 pg/mg | IL-1β Stomach (IL-1β; D4, 120.7mg/kg): 291 ± 20 pg/mg | IL-1β Large intestine (IL-1β; D8, 120.7 mg/kg): 320 ± 34 pg/mg | IL-1β Small intestine (IL-1β; D8, 120.7 mg/kg): 340 ± 21 pg/mg | IL-1β Stomach (IL-1β; D8, 120.7 mg/kg): 308 ± 24 pg/mg | % lymphocyte CD4^+ ([1]; 3 days after administration): 33.31±8.66% | % lymphocyte CD8^+ ([1]; 3 days after administration): 20.52±5.91% | % lymphocyte CD4^+ [1, 4]: 22.69±4.04% | % lymphocyte CD8^+ [1, 4]: 11.40±2.18% | CD4^+/CD8^+ ([1]; 3 days after administration): 1.65±0.18 | CD4^+/CD8^+ [1, 4]: 2.03±0.37 | Cecum and rectum + (Coxsackievirus B3 (CVB3) [2]; 3 days after administration): 3 | Cecum and rectum + + (Coxsackievirus B3 (CVB3) [2]; 3 days after administration): 0 | Cecum and rectum - (Coxsackievirus B3 (CVB3) [2]; 3 days after administration): 7 | Duodenum and jejunum + (Coxsackievirus B3 (CVB3) [2]; 3 days after administration): 0 | Duodenum and jejunum + + (Coxsackievirus B3 (CVB3) [2]; 3 days after administration): 0 | Ileum and colon + (Coxsackievirus B3 (CVB3) [2]; 3 days after administration): 2 | Ileum and colon + + (Coxsackievirus B3 (CVB3) [2]; 3 days after administration): 3 | Ileum and colon - (Coxsackievirus B3 (CVB3) [2]; 3 days after administration): 5 | Stomach + (Coxsackievirus B3 (CVB3) [2]; 3 days after administration): 9 | Stomach + + (Coxsackievirus B3 (CVB3) [2]; 3 days after administration): 1 | Stomach - (Coxsackievirus B3 (CVB3) [2]; 3 days after administration): 0 | Cecum and rectum + (Coxsackievirus B3 (CVB3) [2]; [5]): 5 | Cecum and rectum + + (Coxsackievirus B3 (CVB3) [2]; [5]): 2 | Cecum and rectum - (Coxsackievirus B3 (CVB3) [2]; [5]): 3 | Duodenum and jejunum + (Coxsackievirus B3 (CVB3) [2]; [5]): 0 | Duodenum and jejunum + + (Coxsackievirus B3 (CVB3) [2]; [5]): 0 | Ileum and colon + (Coxsackievirus B3 (CVB3) [2]; [5]): 2 | Ileum and colon + + (Coxsackievirus B3 (CVB3) [2]; [5]): 3 | Ileum and colon - (Coxsackievirus B3 (CVB3) [2]; [5]): 5 | Stomach + (Coxsackievirus B3 (CVB3) [2]; [5]): 5 | Stomach + + (Coxsackievirus B3 (CVB3) [2]; [5]): 0 | Stomach - (Coxsackievirus B3 (CVB3) [2]; [5]): 5 | viral load, Large intestine (Coxsackievirus B3 (CVB3) [3]; [6]): 515.92±226.55 Copies/mg | viral load, Small intestine (Coxsackievirus B3 (CVB3) [3]; [6]): 947.76±811.44 Copies/mg | viral load, Stomach (Coxsackievirus B3 (CVB3) [3]; [6]): 49.19±11.47 Copies/mg | viral load, Large intestine (Coxsackievirus B3 (CVB3) [3]; [7]): 16346.45±20084.56 Copies/mg | viral load, Small intestine (Coxsackievirus B3 (CVB3) [3]; [7]): 308.03±198.76 Copies/mg | viral load, Stomach (Coxsackievirus B3 (CVB3) [3]; [7]): 104.75±74.10 Copies/mg | TNF-α Large intestine (TNF-α; D4, 120.7mg/kg): 2557 ± 100 pg/mg | TNF-α Small intestine (TNF-α; D4, 120.7mg/kg): 2806 ± 158 pg/mg | TNF-α Large intestine (TNF-α; D8, 120.7 mg/kg): 2491 ± 151 pg/mg | TNF-α Small intestine (TNF-α; D8, 120.7 mg/kg): 2698 ± 145 pg/mg | TNF-α Stomach (TNF-α; D8, 120.7 mg/kg): 2731 ± 96 pg/mg
